“Also recorded” adds a separate entry of the source. Peptide text beside a SMILES is read from it. * marks the point of attachment. Cbz = O=C(OCc1ccccc1)*; OtBu = CC(C)(C)O*
B1: ovalbumin (protein, UniProt P01012 2-386, looked up)
Ovalbumin: GSIGAASMEFCFDVFKELKVHHANENIFYCPIAIMSALAMVYLGAKDSTRTQINKVVRFDKLPGFGDSIEAQCGTSVNVHSSLRDILNQITKPNDVYSFSLASRLYAEERYPILPEYLQCVKELYRGGLEPINFQTAADQARELINSWVESQTNGIIRNVLQPSSVDSQTAMVLVNAIVFKGLWEKAFKDEDTQAMPFRVTEQESKPVQMMYQIGLFRVASMASEKMKILELPFASGTMSMLVLLPDEVSGLEQLESIINFEKLTEWTSSNVMEERKIKVYLPRMKMEEKYNLTSVLMAMGITDVFSSSANLSGISSAESLKISQAVHAAHAEINEAGREVVGSAEAGVDAASVSEEFRADHPFLFCIKHIATNAVLFFGRCVSP
notes: internal positive control antigen; exogenous foreign neoantigen

Assays:
BMDC = experiment: Maturation of LPS-stimulated BMDC (costimulatory molecules, cytokines); format: cell-based, mouse; conditions: PSI-pulsed BMDC stimulated with LPS
NF-κB p65 = experiment: Measurement of nuclear NF-κB p65 in BMDC; format: cell-based, mouse; conditions: 1 μg/ml LPS plus 1 μM PSI for 60 min, compared to control
Procedure: Measurement of nuclear NF-κB—BMDC were treated with media alone, 1 μg/ml LPS, or LPS plus 1 μM PSI for 60 min. The nuclear extracts were made by using TransFactor Extraction Kit (Clontech Laboratories, Inc., Palo Alto, Calif.) based on the protocol recommended by the manufacturer. NF-κB p65 was measured by using Mercury TransFactor Kits (Clontech Labs, Inc., Palo Alto, Calif.) according to manufacturer's protocol.

DO11.10 CD4^+ T cells = experiment: T cell cytokine assays (ELISA of culture supernatants); format: cell-based, mouse; conditions: PSI-pretreated, OVA peptide-pulsed BMDC
Procedure: […] The culture supernatants (SN) were collected at different times and pooled together for assay. SN collected after 24 hr of culture were used for IL-2 assay and SN collected at 72 h of culture were used for IL-10, IL-4, and IFNγ assays. The cytokine content in SN was determined by ELISA as previously described by Cong et al. (Cong et al., CD4+ T cells reactive to enteric bacterial antigens in spontaneously colitic C3H/HeJBir mice: increased T helper cell type 1 response and ability to transfer disease. Journal of Experimental Medicine 187:855 (1998).

[1] = tested on: DO11.10.RAG2−/− CD4^+ T cells; experiment: T cell proliferation assay with PSI-pretreated, OVA peptide-pulsed BMDC; format: cell-based, mouse; conditions: BMDC pretreated with 1 μM PSI 4 hrs, then OVA peptide 20 hrs; p<0.005
Procedure: Generation of PSI-APC Treg cells—BMDC generated from BALB/c mice were treated with 1 μM PSI dissolved in DMSO for 4 hrs and then 5 μg/ml OVA peptide for additional 20 hrs at 1×10^6/ml. After washing twice, the pretreated BMDC were added at 1×10^5/ml into cultures of 1×10^6 freshly isolated CD4^+ T cells from DO11.10.RAG2^−/− mice. Seven days later, the CD4^+ T cells were re-isolated with CD4-magnet beads (Pharmingen, San Diego, Calif.) and used to test for regulatory activity (PSI-APC Treg). Freshly isolated CD4^+ T cells from DO11.10.RAG2^−/− mice were also cultured with 5 μg/ml OVA peptide-pulsed BMDC as control, and used as memory T cells (Them).
After 4 d of incubation, 0.5 μCi of ^3H-thymidine was added to each culture for the last 18 hr of the incubation period. The cells were harvested on glass fiber filters on a PHD cell harvested (Cambridge Technology, Watertown, Mass.) and proliferation was assessed as the amount of incorporation of ^3H-thymidine into cell DNA, as measured by beta scintillation counting of the harvested samples. Data are expressed as CPM±SD.

mice = conditions: mouse, in vivo
Splenic CD4^+ T cells = experiment: Antigen-specific proliferation of splenic CD4+ T cells (3H-thymidine); format: cell-based, mouse

| Molecule | IL-10 production by BMDC (BMDC) | IL-12p70 cytokine production (BMDC) | expression of costimulatory molecules CD40, CD86 and MHC class II (BMDC) | NF-κB p65 in nuclear extracts (NF-κB p65) | T cell IL-4 production (DO11.10 CD4^+ T cells) | reduction of T cell IFNα production (DO11.10 CD4^+ T cells) | reduction of T cell IL-2 production (DO11.10 CD4^+ T cells) | reduction of T cell IL-10 production (DO11.10 CD4^+ T cells) | naïve CD4+ T cell proliferation to OVA peptide-pulsed BMDC [1] | intestinal IgA response to OVA (mice) | serum IgG response to OVA (mice) | median stimulation index (Splenic CD4^+ T cells; post immunization (day 35), 50 μg/ml antigen) | T cell proliferative response, stimulation index (SI) (Splenic CD4^+ T cells; unimmunized mice) |
| --- | --- | --- | --- | --- | --- | --- | --- | --- | --- | --- | --- | --- | --- |
| CC[C@H](C)[C@H](NC(=O)OCc1ccccc1)C(=O)N[C@@H](CCC(=O)OC(C)(C)C)C(=O)N[C@@H](C)C(=O)N[C@H](C=O)CC(C)C [PSI, benzyloxycarbonyl-isoleucyl-glutamyl(O-tert-butyl)-alanyl-leucinal] (Cbz-IE(OtBu)AL-aldehyde) | not affected | did not upregulate | did not upregulate | inhibited BMDC NF-κβ activation; also recorded: reduced levels of NF-κB p65 | no IL-4 production | 81% | 89% | 79% | inhibited T cell proliferation and cytokine production; also recorded: greatly decreased | – | – | – | – |
| cholera toxin [CT] | – | – | – | – | – | – | – | – | – | strong intestinal IgA response | strong serum IgG response to OVA | – | – |
| B1 | – | – | – | – | – | – | – | – | – | virtually no intestinal IgA to OVA | no serum IgG response to OVA | 17.1 | < 3 |
